This is an account of results in paper PMC3866116 (PLoS ONE, 2013).

Like-named read-outs stand apart in the source and are kept apart here. Bounds are passed on as bounds.

The subject of data set [1] is HCV subgenomic replicon RNA of genotype 1b strain N (Huh7/Rep-Feo cells). The experiment in a line: Luciferase assay in HCV subgenomic replicon cell line Huh7/Rep-Feo. The class given is cell-based, hepatitis C virus. The note with it: Huh7/Rep-Feo, strain N (1b); for EC50: subgenome, 72 h, read-out: EC50, fifty percent effective concentration based on the inhibition of HCV replication. On the procedure: The Huh7/Rep-Feo cell line, which harbors the subgenomic replicon RNA composed of HCV IRES, the gene of the fusion protein consisting of neomycin phosphotransferase and firefly luciferase, EMCV IRES and a nonstructural gene of genotype 1b strain N in order in Huh7 cell line, was previously established. Thus, the luciferase activity corresponds to the level of HCV RNA replication. The cell line was maintained in Dulbecco's modified Eagle medium containing 10% fetal calf serum and 0.5 mg/mL G418 and cultured in absence of G418 when they were treated with compounds. The Lunet/Con1LUN Sb #26 cell line, which harbors the subgenomic replicon RNA of the Con1 strain (genotype 1b), was described previously. The OR6 cell line, which harbors the full genomic replicon RNA of the O strain (genotype 1b), was described previously. The HCV replicon cell line derived from the genotype 2a strain JFH1 was described previously. The viral RNA derived from the plasmid pJFH1 was transcribed and introduced into Huh7OK1 cells according to the method of Wakita et al.. The virus was amplified by the several times passages. The cells were infected with the virus at a multiplicity of infection (moi) of 1 and then treated with each compound at 24 h post-infection. The culture supernatants were harvested 72 h post-treatment to estimate the viral RNA as described below.
(§1) The replicon cells were seeded at 2×10^4 cells per well in a 48-well plate 24 h before treatment. […] The resulting cells were harvested 72 h post-treatment and lysed with cell culture lysis reagent (Promega, Madison, WI). The luciferase activity of each cell lysate was estimated using a luciferase assay system (Promega). The resulting luminescence was detected by a Luminescencer-JNR AB-2100 (ATTO, Tokyo, Japan).
On the technique in general: In antiviral work, replicon cells carry a viral genome segment that copies itself.

Data set [2] is described as follows: Cytotoxicity (MTS assay) in Huh7/Rep-Feo replicon cells. The class given is cell-based. The note with it: human, Huh7/Rep-Feo cells, MTS, read-out: CC50, fifty percent cytotoxicity concentration based on the reduction in cell viability. How it is done:
(§2) The replicon cells were seeded at a density of 1×10^4 cells per well in a 96-well plate and then incubated at 37°C for 24 h. […] Cell viability was measured using a dimethylthiazol carboxymethoxy-phenylsulfophenyl tetrazolium (MTS) assay with a CellTiter 96 aqueous one-solution cell proliferation assay kit (Promega).
On the technique in general: Tetrazolium assays rely on reduction of a dye to a coloured formazan, in cell work by metabolically active cells.

The test system of the next data set is Huh7/Rep-Feo cells. The description is as above. The class given is cell-based. The note with it: Huh7/Rep-Feo cells, 72 h, MTS; read-out: CC50, fifty percent cytotoxicity concentration based on the reduction in cell viability. On the procedure:
as §2

Another data set relates to ISRE-promoter activity. Description: ISRE reporter assay in Huh7 OK1 cells. The note with it: 48 h of treatment, interferon alpha 2b as positive control. The class given is cell-based.
The test system of data set [3] is HCV subgenomic replicon RNA of genotype 1b strain Con1. The experiment in a line: Drug combination analysis (CalcuSyn) in Con1 LUN Sb #26 replicon cells. The class given is cell-based, hepatitis C virus. The note with it: 72 h; for effect of combination with compound 10 on inhibition of HCV replication (combination index at EC50, EC75, EC90): CI <0.9 synergy, 0.9 to 1.1 additivity, >1.1 antagonism; for isobologram: location of calculated EC90 plots for combination with compound 10: under additive line = synergy, above = antagonism. On the procedure:
as §1
The effects of drug-drug combinations were evaluated by using the Con1 LUN Sb #26 replicon cells, and were analyzed by using the computer software CalcuSyn (Biosoft, Cambridge, United Kingdom). Dose inhibition curves of two different drugs were plotted with each other. In each drug combination, EC90 values of several combinations of two different drugs were plotted as the fractional concentration (FC) of both drugs on the x and y-axes. Additivity indicates the line linked between 1.0 FC value points of both drugs in the absence of each other. Synergy and antagonism are indicated by values plotted under and above, respectively, an additivity line. The explanatory diagram of isobologram is shown in a right end of lower panels of Figure 5A. Combination indexes (CIs) were calculated at the EC50, EC75, and EC90 by using CalcuSyn. A CI value of less than 0.9 indicates synergy. A CI value ranging from 0.9 to 1.1 indicates additivity. A CI value of more than 1.1 indicates antagonism. The explanatory diagram was shown in a right end of lower panels of Figure 5B.

Take `O=C(O)/C=C/c1ccc(O)c(O)c1` [Compound 2, caffeic acid]: the EC50 in data set [1] (Hepatitis C virus, Huh-7) amounted to 36.6 ± 6.7 µM. Further, in data set [1], the “SI, selectivity index (CC50/EC50)” value was above 8.7. Also, the CC50 at 72 h in data set [2] (Huh7/Rep-Feo replicon cells) was above 320 µM.

As to `COc1cc(/C=C/C(=O)O)ccc1O` [Compound 3, ferulic acid], in data set [1], the EC50 is 71.9 ± 5.8 µM. In addition, in the data set on Huh7/Rep-Feo cells, the CC50 is above 320 µM.

`O=C(C=Cc1ccccc1)OCCc1ccccc1` [Compound 4, Cinnamic acid phenethyl ester]: the EC50 in data set [1] was 86.1 ± 6.3 µM. For the same molecule, the CC50 in the data set with Huh7/Rep-Feo cells is above 320 µM.

As for `O=C(/C=C/c1ccc(O)c(O)c1)O[C@@H]1C[C@](O)(C(=O)O)C[C@@H](O)[C@H]1O` [Compound 5, chlorogenic acid], in data set [1] (Hepatitis C virus, Huh-7), the EC50 was 103 ± 3.4 µM. In addition, the “SI, selectivity index (CC50/EC50)” value in data set [1] is on record as above 3.1. The CC50 at 72 h in data set [2] (Huh7/Rep-Feo replicon cells) was above 320 µM.

Regarding `O=C(/C=C/c1ccc(O)c(O)c1)O[C@H](Cc1ccc(O)c(O)c1)C(=O)O` [Compound 6, Rosmarinic acid], in data set [1] (Hepatitis C virus, Huh-7), the EC50 was 110 ± 1.1 µM. In data set [1], the “SI, selectivity index (CC50/EC50)” value is recorded as above 2.9. Further, the CC50 at 72 h in data set [2] is above 320 µM. Also, the “effect on ISRE-promoter activities” value in the data set with ISRE-promoter activity is listed as “no significant effects”.

For `COC(=O)/C=C/c1ccc(O)c(O)c1` [Compound 7, caffeic acid methyl ester], in data set [1], the EC50 came to 28.6 ± 1.2 µM. The CC50 in the data set on Huh7/Rep-Feo cells was 122 ± 5 µM.

As for `COC(=O)CCc1ccc(O)c(O)c1` [Compound 12, Dihydrocaffeic acid methyl ester], the EC50 in data set [1] came out at 77 ± 1.6 µM. The CC50 in the data set with Huh7/Rep-Feo cells stood at 141 ± 3.4 µM.

For `CCCCCCCCOC(=O)/C=C/c1ccc(O)c(OC)c1` [Compound 13, 3-O-methylcaffeic acid n-octyl ester], in data set [1] (Hepatitis C virus, Huh-7), the EC50 is 10.2 ± 1.1 µM. For the same molecule, the “SI, selectivity index (CC50/EC50)” value in data set [1] worked out at 5.9. For the same molecule, the CC50 at 72 h in data set [2] (Huh7/Rep-Feo replicon cells) amounted to 60.3 ± 1.6 µM.

Take `CCCCCCCCOC(=O)/C=C/c1ccc(OC)c(O)c1` [Compound 14, 4-O-methylcaffeic acid n-octyl ester]: in data set [1] (Hepatitis C virus, Huh-7), the EC50 came to 19.6 ± 0.8 µM. Further, the “SI, selectivity index (CC50/EC50)” value in data set [1] was 3. The CC50 at 72 h in data set [2] (Huh7/Rep-Feo replicon cells) is 59.2 ± 1.4 µM.

Take `CCCCCCCCOC(=O)C=Cc1cc(O)c(O)c(O)c1` [Compound 16, 3,4,5-Trihydroxycinnamic acid n-octyl ester]: the EC50 in data set [1] (Hepatitis C virus, Huh-7) was determined as 36.3 ± 2.9 µM. Also, the “SI, selectivity index (CC50/EC50)” value in data set [1] was 1.6. Moreover, the CC50 at 72 h in data set [2] (Huh7/Rep-Feo replicon cells) amounted to 59.8 ± 6.9 µM.

Regarding `CC(C)(C)C#Cc1cc(N(C(=O)[C@H]2CC[C@H](C)CC2)[C@H]2CC[C@H](O)CC2)c(C(=O)O)s1` [VX-222], in data set [3], the “effect of combination with compound 10 on inhibition of HCV replication (combination index at EC50, EC75, EC90)” value was “additive to synergistic effect” and the “isobologram: location of calculated EC90 plots for combination with compound 10” value is recorded as “under the additive line”.

Consider `COC(=O)N[C@H](C(=O)N1CCC[C@H]1c1nc(-c2ccc(-c3ccc(-c4c[nH]c([C@@H]5CCCN5C(=O)[C@@H](NC(=O)OC)C(C)C)n4)cc3)cc2)c[nH]1)C(C)C` [daclatasvir], for which, in data set [3], the “effect of combination with compound 10 on inhibition of HCV replication (combination index at EC50, EC75, EC90)” value is recorded as “strong synergistic effect” and the “isobologram: location of calculated EC90 plots for combination with compound 10” value is recorded as “under the additive line”.

As for `CC(C)(C)OC(=O)N[C@H]1CCCCC/C=C\[C@@H]2C[C@@]2(C(=O)NS(=O)(=O)C2CC2)NC(=O)[C@@H]2C[C@@H](OC(=O)N3Cc4cccc(F)c4C3)CN2C1=O` [danoprevir], in data set [3], the “effect of combination with compound 10 on inhibition of HCV replication (combination index at EC50, EC75, EC90)” value was “antagonistic to additive effect” and the “isobologram: location of calculated EC90 plots for combination with compound 10” value is on record as “above the additive line”.

As for `CCC[C@H](NC(=O)[C@@H]1[C@H]2CCC[C@H]2CN1C(=O)[C@@H](NC(=O)[C@@H](NC(=O)c1cnccn1)C1CCCCC1)C(C)(C)C)C(=O)C(=O)NC1CC1` [telaprevir], in data set [3], the “effect of combination with compound 10 on inhibition of HCV replication (combination index at EC50, EC75, EC90)” value was “antagonistic effect” and the “isobologram: location of calculated EC90 plots for combination with compound 10” value was “above the additive line”.
